Assays:
[1] = system: primary rat Schwann cells; assay: Schwann cells plated on pattern of laminin lines, orientation analysis; type: cell-based
Method: Purified primary rat Schwann cells were obtained from Prof. M. B. Bunge, University of Miami, the Miami Project to Cure Paralysis, and maintained in tissue culture flasks with a growth media consisting of Dulbecco's Modified Eagle's Medium (DMEM, Sigma), 10% v/v fetal bovine serum (Gibco), L-glutamine (2 mM, BioWhittaker), penicillin/streptomycin (P/S, 50 U/mL/50 μg/mL, BioWhittaker), 10 μg/mL bovine pituitary extract (Collaborative), and 10 μM forskolin (Sigma).
Schwann cells were rinsed with phosphate buffered saline (PBS, BioWhittaker) and incubated with trypsin ([…], Sigma) for 3 min. An equal amount of serum containing media was added to deactivate the trypsin and the cells were concentrated by centrifugation. […]
The samples were imaged on a Zeiss LSM 410 confocal laser-scanning microscope (CLSM) with a computer controlled laser scanning assembly attached to the microscope using a 20× phase contrast objective in fluorescence mode. An Omnichrome 3 line Argon/Krypton laser (488, 568, 647 nm) was used as the excitation source for double fluorescence measurements, with excitation at 488 nm and 568 nm and emission at 512 nm and 605 nm. […]
Multiple images were taken randomly per sample and analyzed by Image Pro Plus image analysis software (Media Cybernetics). […] Major and minor axes were calculated as well as the angle created by the major axis and the direction of patterning (FIG. 7). […]

[2] = system: dorsal root ganglia or dissociated neurons; assay: Dorsal root ganglia or dissociated neurons plated on laminin pattern; type: cell-based, chick; conditions: pattern of lines, PMMA substrate
Source text: Biologically active molecules were stably adsorbed onto a polymeric substrate without chemical modification of the substrate and without the use of linkers. A nondegradable polymer, poly(methyl methylacrylate) (PMMA, […] thickness, Goodfellows) and a degradable polymer, such as poly(hydroxybutyrate (PHB), polycaprolactone or polycaprolactam), were used as polymeric substrates for application of a micropattern of laminin. See FIG. 2 for the general procedure. For these experiments, the polymers were compressed into thin films of 200 μm and cut to the size of coverslips. After activation, polymeric substrates were evaluated via x-ray photoelectron spectroscopy, and/or scanning electron microscopy. […] After laminin absorption, its deposition was determined by incubating the prepared slips with rabbit anti-laminin affinity isolated antibody and FITC-conjugated goat anti-rabbit IgG (see FIG. 3).
Dorsal root ganglia dissected from seven-day old chick embryos were either directly plated onto the patterned substrate or dissociated into individual neurons and plated. […]
The laminin stamped PMMA squares were rinsed with Hank's balanced saline solution and plated with dorsal root ganglia or dissociated neurons in minimal, serum-free media. The samples were incubated at 37° C. for 24 to 48 hours, imaged with a Zeiss laser scanning confocal microscope, and the images analyzed for pattern adherence. […]

laminin
orientation of Schwann cells relative to direction of laminin patterning (0°) ([1]; monolayer, ellipse fitting, FIG. 7): majority of the cells are oriented at 0°
process outgrowth along the pattern, Schwann cells ([1]; pattern of lines, FIG. 5): most neuronal processes adhere to and grow along the lines of the laminin pattern
neuronal process outgrowth along the pattern [2]: most neuronal processes adhere to and grow along the lines of the laminin pattern

— US20100291181A1, “THERAPEUTIC DEVICES FOR PATTERNED CELL GROWTH” (RUTGERS, THE STATE UNIVERSITY OF NEW JERSEY, priority 2002, published 2010)
